Reference: patent US12503452B2 (Curza Global, LLC, priority 2019, dated 2025)
Where a name gives a salt, the structure may show the parent alone. Read-outs that look alike come from different tables or passages of the source.

Legend:
E. faecalis (Ef) = test: Broth microdilution minimum inhibitory concentration (MIC); assay type: cell-based; conditions: for MIC: Enterococcus faecalis, read-out: Ef + bicarb MIC
Procedure, shortened: (§1)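 Two-fold compound series, 8 points in triplicate; medium CAMHB ± NaHCO3 (6.25 or 25 mM final) or ± 0–50% heat-inactivated human serum; inoculum 5×10^4 CFU/well; growth-method 0.5 McFarland suspensions; modified CLSI M07-A9.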

P. aeruginosa (Pa) = test: as above; assay type: cell-based; conditions: for MIC: Pseudomonas aeruginosa, read-out: Pa MIC + bicarb
Procedure, shortened: as §1

E. coli (Ec) = test: as above; assay type: cell-based; conditions: for MIC: Escherichia coli, read-out: E. coli + bicarb MIC
Procedure, shortened: as §1

A. baumannii (Ab) = test: as above; assay type: cell-based; conditions: for MIC: Acinetobacter baumannii, read-out: Ab + bicarb MIC
Procedure, shortened: as §1

S. aureus (Sa) = test: as above; assay type: cell-based; conditions: for MIC: Staphylococcus aureus, read-out: Sa + bicarb MIC
Procedure, shortened: as §1

[1] = target: Rabbit Reticulocyte Lysate (eukaryotic protein synthesis); test: Rabbit reticulocyte lysate luciferase assay (inhibition of eukaryotic protein synthesis); assay type: biochemical; conditions: read-out: Rabbit reticulocyte IC50 (μM/% inhib.)
Procedure, shortened: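 Compounds were tested in 8-point 2-fold dilution series for blocking luciferase synthesis in nuclease-treated rabbit reticulocyte lysate (30° C., 90 minutes). Luminescence read-out, corrected by no-RNA background, was expressed as % inhibition against water-only reactions.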

[2] = tested on: E. coli S30 extract (bacterial protein synthesis); test: E. coli S30 extract coupled transcription-translation luciferase assay (inhibition of bacterial protein synthesis); assay type: biochemical; conditions: read-out: S30 IC50 (μM/% inhib.)
Procedure, shortened: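 Luminescent read-out of luciferase made from pBESTluc DNA by E. coli S30 extract after 1 h at 37 °C with compound in an 8-point 2-fold series. Background came from no-DNA reactions. Percent inhibition was calculated against water-only controls.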

[3] = class by IC50 or % inhibition @ 1 μM
[4] = E. faecalis, growth medium supplemented with sodium bicarbonate
[5] = P. aeruginosa, growth medium supplemented with sodium bicarbonate
[6] = E. coli, growth medium supplemented with sodium bicarbonate
[7] = A. baumannii, growth medium supplemented with sodium bicarbonate
[8] = S. aureus, growth medium supplemented with sodium bicarbonate
[9] = E. faecalis, growth medium with sodium bicarbonate
[10] = P. aeruginosa, growth medium with sodium bicarbonate
[11] = E. coli, growth medium with sodium bicarbonate
[12] = A. baumannii, growth medium with sodium bicarbonate
[13] = S. aureus, growth medium with sodium bicarbonate

SMILES	IC50 [1, 3]	IC50 [2, 3]	MIC (E. faecalis (Ef); [9])	MIC (P. aeruginosa (Pa); [10])	MIC (E. coli (Ec); [11])	MIC (A. baumannii (Ab); [12])	MIC (S. aureus (Sa); [13])	other results
COc1cc(-n2ccc(NC(=O)N3CCN(C(=O)C(C)(C)N)CC3)nc2=O)ccc1CN(CC1CC1)C1CCC(N)CC1 (stereo not drawn) [Compound 317, hydrochloride salt]	> 1 µM	< 0.5 µM						MIC (E. faecalis (Ef)): 8 to 32 µg/mL; MIC (P. aeruginosa (Pa)): > 32 µg/mL; MIC (E. coli (Ec)): < 8 µg/mL; MIC (A. baumannii (Ab)): > 32 µg/mL; MIC (S. aureus (Sa)): < 8 µg/mL
CC(C)(N)C(=O)N1CCN(C(=O)Nc2ccn(-c3ccc(C4CO[C@@H](CN)CN4)cc3)c(=O)n2)CC1 (stereo partly drawn) [Compound 352, hydrochloride salt]								MIC (E. faecalis (Ef)): > 32 µg/mL; MIC (P. aeruginosa (Pa)): > 32 µg/mL; MIC (E. coli (Ec)): 8 to 32 µg/mL; MIC (A. baumannii (Ab)): > 32 µg/mL; MIC (S. aureus (Sa)): > 32 µg/mL; IC50 ([1]; % inhibition @ 1 μM): > 1 µM; IC50 ([2]; % inhibition @ 1 μM): < 0.5 µM
CNC1CCCN(CCc2ccc(-n3ccc(NC(=O)N4CCN(C(=O)C(C)(C)N)CC4)nc3=O)cc2)CC1 (stereo not drawn) [Compound 33]	> 1 µM	0.5 to 1 µM						MIC (E. faecalis (Ef); [4]): > 32 µg/mL; MIC (P. aeruginosa (Pa); [5]): > 32 µg/mL; MIC (E. coli (Ec); [6]): < 8 µg/mL; MIC (A. baumannii (Ab); [7]): > 32 µg/mL; MIC (S. aureus (Sa); [8]): 8 to 32 µg/mL
CC(COc1ccc(-n2ccc(NC(=O)N3CCN(C(=O)C(C)(C)N)CC3)nc2=O)cc1)N1CC[C@@H](CN)C1 (stereo partly drawn) [Compound 186]	> 1 µM	< 0.5 µM	8 to 32 µg/mL	> 32 µg/mL	< 8 µg/mL	> 32 µg/mL	< 8 µg/mL	
CC[C@@H]1CN(Cc2ccc(-n3ccc(NC(=O)N4CCN(C(=O)C(C)(C)N)CC4)nc3=O)cc2)CC[C@H]1N (stereo in doubt) [Compound 213]	> 1 µM	< 0.5 µM	< 8 µg/mL	> 32 µg/mL	< 8 µg/mL	> 32 µg/mL	< 8 µg/mL	
CC(N)C1CCN(Cc2ccc(-n3ccc(NC(=O)N4CCN(C(=O)C(C)(C)N)CC4)nc3=O)cn2)CC1 (stereo not drawn) [Compound 95]	> 1 µM	< 0.5 µM						MIC (E. faecalis (Ef); [4]): > 32 µg/mL; MIC (P. aeruginosa (Pa); [5]): > 32 µg/mL; MIC (E. coli (Ec); [6]): < 8 µg/mL; MIC (A. baumannii (Ab); [7]): > 32 µg/mL; MIC (S. aureus (Sa); [8]): 8 to 32 µg/mL
CC(N)C1CCN(Cc2ccc(-n3ccc(NC(=O)N4CCN(C(=O)C(C)(C)N)CC4)nc3=O)cc2)CC1 (stereo not drawn) [Compound 247]	> 1 µM	< 0.5 µM	< 8 µg/mL	> 32 µg/mL	< 8 µg/mL	> 32 µg/mL	< 8 µg/mL	
CC(CN1CC[C@H](CN)C1)Oc1ccc(-n2ccc(NC(=O)N3CCN(C(=O)C(C)(C)N)CC3)nc2=O)cc1 (stereo partly drawn) [Compound 184]	> 1 µM	< 0.5 µM	8 to 32 µg/mL	> 32 µg/mL	< 8 µg/mL	> 32 µg/mL	< 8 µg/mL	
CC(C)(N)C(=O)N1CCN(C(=O)Nc2ccn(-c3ccc(CN4CC[C@@H](CN)C4)cc3)c(=O)n2)CC1 [Compound 243]	> 1 µM	< 0.5 µM	8 to 32 µg/mL	> 32 µg/mL	< 8 µg/mL	> 32 µg/mL	< 8 µg/mL	
CC(C)(N)C(=O)N1CCN(C(=O)Nc2ccn(-c3ccc(CCN[C@@H]4CC[C@H](N)C4)cc3)c(=O)n2)CC1 [Compound 181]	> 1 µM	< 0.5 µM	8 to 32 µg/mL	> 32 µg/mL	< 8 µg/mL	> 32 µg/mL	< 8 µg/mL	
CC(C)(N)C(=O)N1CCN(C(=O)Nc2ccn(-c3ccc(CN4CCC(N)CC4)cc3)c(=O)n2)CC1 [Compound 57]	> 1 µM	< 0.5 µM						MIC (E. faecalis (Ef); [4]): 8 to 32 µg/mL; MIC (P. aeruginosa (Pa); [5]): > 32 µg/mL; MIC (E. coli (Ec); [6]): < 8 µg/mL; MIC (A. baumannii (Ab); [7]): > 32 µg/mL; MIC (S. aureus (Sa); [8]): < 8 µg/mL
CC(Cc1ccc(-n2ccc(NC(=O)N3CCN(C(=O)C(C)(C)N)CC3)nc2=O)cc1)N1CC[C@H](CN)C1 (stereo partly drawn) [Compound 378]								Ef + bicarb MIC (E. faecalis (Ef); [9]): ++ (An MIC value (μg/mL) that is 8 μg/mL or greater and less than 32 μg/mL); Pa MIC + bicarb (P. aeruginosa (Pa); [10]): + (An MIC value (μg/mL) that is 32 μg/mL or greater); E. coli + bicarb MIC (E. coli (Ec); [11]): +++ (An MIC value (μg/mL) that is less than 8 μg/mL); Ab + bicarb MIC (A. baumannii (Ab); [12]): + (An MIC value (μg/mL) that is 32 μg/mL or greater); Sa + bicarb MIC (S. aureus (Sa); [13]): +++ (An MIC value (μg/mL) that is less than 8 μg/mL); IC50 ([1]; % inhibition @ 1 μM): > 1 µM; IC50 ([2]; % inhibition @ 1 μM): < 0.5 µM
